From patent US20260174797A1, “MAGNESIUM AND TRACE ELEMENT OXIDE PREMIX FOR ANIMAL NUTRITIONAL SUPPLEMENTATION, AND MANUFACTURING METHOD” (TIMAB MAGNESIUM, priority 2022, published 2026)
Marks after values point to notes of the source that are not given here.

Tests used:
[1] = in vivo
From the text: Each piglet is tagged, weighed and allocated in groups of 8 piglets per pen.
Analyses of the faeces after 14 days of use of the different treatments allowed to assess the amount of zinc not used by the animal and thus released into the soil, contributing to pollution.

[2] = In vivo piglet test: growth performance (weight gain, feed consumption) D0 to D42 post-weaning; design: species or system piglets (Danbred×Duroc); conditions: for Daily weight gain: Overall period D0 to D42
Protocol: The effect of the premix of the invention on the performance and health of piglets in the post-weaning pre-starter stage (0-14 days post-weaning) was evaluated and compared to a standard oxide.
The use of the product of the invention ZnO—MgO was compared with standard zinc oxide at nutritional dose as well as at pharmacological dose in the contents indicated in Table 3.
Piglet weight was measured from D0 to D42 post-weaning in order to record daily weight gain and total weight at the end of the test. Feed consumption of each animal was also recorded each day of the test and recorded as an average to assess the feed conversion ratio (FCR). The FCR corresponds to the conversion index CI. It is equal to the average daily consumption reported to the average daily weight gain. The mean values+/−the standard deviation are presented per treatment.

Caco2 cells = conditions: Caco-2
[3] = Control Negative: ZnO 150 ppm additive (120 ppm zinc)
[4] = Control Positive: ZnO 3261 ppm additive (2620 ppm zinc)
[5] = Pre-starter phase D0 to D14, Control Negative: ZnO 150 ppm additive (120 ppm zinc)
[6] = Pre-starter phase D0 to D14, Control Positive: ZnO 3261 ppm additive (2620 ppm zinc)

Molecule	zinc content measured in the feces [1] [ppm]	Live weight Day 0 [2, 3] [kg]	Live weight Day 14 [2, 3]	Live weight Day 42 [2, 3]	Live weight Day 0 [2, 4] [kg]	Live weight Day 14 [2, 4]	Live weight Day 42 [2, 4]	Daily weight gain [2, 3]	Daily weight gain [2, 4]	Average daily feed consumption [2, 5] [kg/day]	Average daily weight gain [2, 5]	Feed conversion ratio [2, 5]	Average daily feed consumption [2, 6] [kg/day]	Average daily weight gain [2, 6]	Feed conversion ratio [2, 6]	Average daily weight gain ([2]; Starter phase D15 to D42, Control Negative: ZnO 150 ppm additive (120 ppm zinc))	Average daily weight gain ([2]; Starter phase D15 to D42, Control Positive: ZnO 3261 ppm additive (2620 ppm zinc))	Total Zn absorbed on cell (Caco2 cells) [mg/L]
[O]=[Zn] [Control, ZnO]	925	6.75	9.61^b kg	26.15^ab kg	6.74	10.01^ab kg	25.33^b kg	0.463^ab kg/day	0.444^b kg/day	0.380	0.205^b kg/day	1.863^a kg/kg	0.395	0.233^ab kg/day	1.705^b kg/kg	0.611^ab kg/day	0.571^b kg/day	–
ZnO—MgO [Premix of the invention MgO—ZnO]	–	–	–	–	–	–	–	–	–	–	–	–	–	–	–	–	–	1.89
